The values that follow come from patent US20230416225A1, “DIAMINOPYRIMIDINE CARBOXAMIDE INHIBITORS OF HPK1” (MERCK SHARP & DOHME LLC, priority 2020, published 2023).

Molecules are shown by their SMILES.

This experiment concerns the target T1, Human HPK1, catalytic domain (Homo sapiens, UniProt Q92918).
T1 construct: purchased Carna
T1 sequence (Q92918 1-346): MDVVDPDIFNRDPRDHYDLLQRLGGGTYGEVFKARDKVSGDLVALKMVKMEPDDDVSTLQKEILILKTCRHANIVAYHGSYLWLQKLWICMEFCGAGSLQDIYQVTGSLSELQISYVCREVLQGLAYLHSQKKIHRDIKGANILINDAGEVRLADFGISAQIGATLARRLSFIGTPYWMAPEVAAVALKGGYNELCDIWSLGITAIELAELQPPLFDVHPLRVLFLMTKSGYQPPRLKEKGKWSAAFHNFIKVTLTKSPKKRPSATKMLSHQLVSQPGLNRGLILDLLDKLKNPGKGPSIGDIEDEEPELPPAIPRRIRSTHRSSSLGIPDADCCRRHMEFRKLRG
The experiment is described as follows: HPK1-SLP76 TR-FRET assay. It is filed as biochemical. As to conditions: 75 pM HPK1, 10 uM ATP, 10 nM SLP76, 30 min compound pre-incubation.

Regarding `COc1cc2c(cc1Nc1ncc(C(N)=O)c(Nc3ccccc3OC(C)C)n1)CN(C)CC2` [Example 7-111, 2-[(6-methoxy-2-methyl-1,2,3,4-tetrahydroisoquinolin-7-yl)amino]-4-({2-[(propan-2-yl)oxy]phenyl}amino)pyrimidine-5-carboxamide], half-maximal inhibition (IC50) was put at 0.26 nM.
`COc1cc2c(cc1Nc1ncc(C(N)=O)c(N[C@@H]3CCc4ccccc43)n1)CN(C)CC2` [Example 26-67, 4-{[(1R)-2,3-dihydro-1H-inden-1-yl]amino}-2-[(6-methoxy-2-methyl-1,2,3,4-tetrahydroisoquinolin-7-yl)amino]pyrimidine-5-carboxamide]: the IC50 (commonly the concentration at which inhibition is half-maximal) is 4.74 nM.
In the case of `COc1cc2c(cc1Nc1ncc(C(N)=O)c(N[C@@H](C)C3CCCCC3)n1)CN(C)CC2` [Example 26-7, 4-{[(1S)-1-cyclohexylethyl]amino}-2-[(6-methoxy-2-methyl-1,2,3,4-tetrahydroisoquinolin-7-yl)amino]pyrimidine-5-carboxamide], it took 12 nM to reach half-maximal inhibition (IC50).
Take `COc1cc2c(cc1Nc1ncc(C(N)=O)c(Nc3ccccc3Br)n1)CN(C(=O)C1CCC1(F)F)CC2` (centres unmarked) [Example 12-10, 4-[(2-bromophenyl)amino]-2-{[2-(2,2-difluorocyclobutane-1-carbonyl)-6-methoxy-1,2,3,4-tetrahydroisoquinolin-7-yl]amino}pyrimidine-5-carboxamide]: the 50% inhibitory concentration (IC50) was 186 nM.
Compound `C#CC[C@H]1CCC[C@H]1Nc1nc(Nc2cc3c(cc2OC)CCN(C)C3)ncc1C(N)=O` [Example 26-40, 2-[(6-methoxy-2-methyl-1,2,3,4-tetrahydroisoquinolin-7-yl)amino]-4-{[(1R,2R)-2-(prop-2-yn-1-yl)cyclopentyl]amino}pyrimidine-5-carboxamide] came in with a concentration for half-maximal inhibition (IC50) of 2.08 nM.
To `NC(=O)c1cnc(Nc2cnn(C3CCNCC3)c2)nc1NC1CCc2cc(F)c(F)cc21` (centres unmarked) [Example 26-50, 4-[(5,6-difluoro-2,3-dihydro-1H-inden-1-yl)amino]-2-{[1-(piperidin-4-yl)-1H-pyrazol-4-yl]amino}pyrimidine-5-carboxamide] belongs 40.6 nM.
Compound `COc1cc2c(cc1Nc1ncc(C(N)=O)c(Nc3ccccc3-c3cc(C)no3)n1)CN(C)CC2` [Example 7-85, 2-((6-methoxy-2-methyl-1,2,3,4-tetrahydroisoquinolin-7-yl)amino)-4-((2-(3-methylisoxazol-5-yl)phenyl)amino)pyrimidine-5-carboxamide] displayed an IC50 of 9.29 nM.
Turning to `COc1cc2c(cc1Nc1ncc(C(N)=O)c(Nc3ccnn3C)n1)CN(C)CC2` [Example 7-88, 2-((6-methoxy-2-methyl-1,2,3,4-tetrahydroisoquinolin-7-yl)amino)-4-((1-methyl-1H-pyrazol-5-yl)amino)pyrimidine-5-carboxamide], the IC50 is 9.16 nM.
